In ChEMBL document CHEMBL4392859, “Xylo-C-nucleosides with a pyrrolo[2,1-f][1,2,4]triazin-4-amine heterocyclic base: Synthesis and antiproliferative properties” (Bioorg Med Chem Lett, 2019):

Legend:
Type in all cases: functional, cell-based
K562 = assay: Antiproliferative activity against human K562 cells
HCT-116 = assay: Antiproliferative activity against human HCT116 cells
[1] = Antiproliferative activity against human DND41 cells
[2] = Antiproliferative activity against human HAP1 cells
CAPAN-1 = assay: Antiproliferative activity against human Capan1 cells
HL-60 = assay: Antiproliferative activity against human HL60 cells
NCI-H460 = assay: Antiproliferative activity against human NCI-H460 cells
Z-138 = assay: Antiproliferative activity against human Z138 cells
[3] = Homo sapiens, K562, read-out: IC50
[4] = Homo sapiens, HCT-116, read-out: IC50
[5] = Homo sapiens, DND41, read-out: IC50
[6] = Homo sapiens, HAP1, read-out: IC50
[7] = Homo sapiens, CAPAN-1, read-out: IC50
[8] = Homo sapiens, HL-60, read-out: IC50
[9] = Homo sapiens, NCI-H460, read-out: IC50
[10] = Homo sapiens, Z-138, read-out: IC50

CC(=O)O[C@@]12CO[C@@H]1C[C@H](O)[C@@]1(C)C(=O)[C@H](O)C3=C(C)[C@@H](OC(=O)[C@H](O)[C@@H](NC(=O)OC(C)(C)C)c4ccccc4)C[C@@](O)([C@@H](OC(=O)c4ccccc4)[C@H]21)C3(C)C [DOCETAXEL ANHYDROUS]
IC50 (K562; [3]): 0.016 µM | IC50 (HCT-116; [4]): 0.004 µM | IC50 [1, 5]: 0.014 µM | IC50 [2, 6]: 0.018 µM | IC50 (CAPAN-1; [7]): 0.019 µM | IC50 (HL-60; [8]): 0.047 µM | IC50 (NCI-H460; [9]): 0.007 µM | IC50 (Z-138; [10]): 0.009 µM

N#C[C@@]1(c2ccc3c(N)ncnn23)O[C@H](CO)[C@H](O)[C@H]1O
IC50 (K562; k562): Not Active | IC50 (HCT-116; hct-116): Not Active | IC50 [1]: Not Active | IC50 [2]: Not Active | IC50 (CAPAN-1; capan-1): Not Active | IC50 (HL-60; hl-60): Not Active | IC50 (NCI-H460; nci-h460): Not Active | IC50 (Z-138; z-138): Not Active

CN[C@@H]1C[C@H]2O[C@@](C)([C@@H]1OC)n1c3ccccc3c3c4c(c5c6ccccc6n2c5c31)C(=O)NC4 [STAUROSPORINE]
IC50 (K562; [3]): 0.083 µM | IC50 (HCT-116; [4]): 0.037 µM | IC50 [1, 5]: 0.023 µM | IC50 (CAPAN-1; [7]): 0.048 µM | IC50 (HL-60; [8]): 0.019 µM | IC50 (Z-138; [10]): 0.018 µM

Nc1ncnn2c([C@@H]3O[C@H](CO)[C@H](O)[C@H]3O)ccc12
IC50 (K562; [3]): 4.3 µM | IC50 (HCT-116; [4]): 8.4 µM | IC50 [1, 5]: 2.8 µM | IC50 [2, 6]: 9.3 µM | IC50 (CAPAN-1; [7]): 2.7 µM | IC50 (HL-60; [8]): 1.9 µM | IC50 (NCI-H460; [9]): 2 µM | IC50 (Z-138; [10]): 4 µM
